# According to paper PMC9117551 (iScience, 2022):
# Like-named read-outs stand apart in the source and are kept apart here.
# Legend:
# Experiment in all cases: SPR
# Format in all cases: binding
# [1] = biological target: T1, serine hydroxymethyltransferase 2 (SHMT2) (Homo sapiens, UniProt P34897)
# T1 sequence (P34897 22-504 limits assumed): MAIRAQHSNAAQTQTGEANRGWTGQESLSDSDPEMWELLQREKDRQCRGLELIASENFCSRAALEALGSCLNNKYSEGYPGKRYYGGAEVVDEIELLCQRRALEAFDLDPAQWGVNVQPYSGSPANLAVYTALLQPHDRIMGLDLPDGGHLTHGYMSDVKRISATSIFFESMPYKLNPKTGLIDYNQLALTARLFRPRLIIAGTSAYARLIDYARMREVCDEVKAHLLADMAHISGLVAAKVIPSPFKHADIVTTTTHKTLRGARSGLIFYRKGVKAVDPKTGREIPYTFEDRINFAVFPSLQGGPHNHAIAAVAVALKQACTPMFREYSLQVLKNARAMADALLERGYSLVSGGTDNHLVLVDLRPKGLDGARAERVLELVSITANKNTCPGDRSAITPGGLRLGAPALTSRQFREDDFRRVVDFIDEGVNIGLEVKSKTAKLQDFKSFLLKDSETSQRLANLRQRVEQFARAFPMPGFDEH
# [2] = biological target: T1, serine hydroxymethyltransferase 2 (SHMT2); remark: listed apart in the source
# SHMT1 = biological target: T2, SHMT1 (Homo sapiens, UniProt P34896)
# T2 sequence (P34896 2-483): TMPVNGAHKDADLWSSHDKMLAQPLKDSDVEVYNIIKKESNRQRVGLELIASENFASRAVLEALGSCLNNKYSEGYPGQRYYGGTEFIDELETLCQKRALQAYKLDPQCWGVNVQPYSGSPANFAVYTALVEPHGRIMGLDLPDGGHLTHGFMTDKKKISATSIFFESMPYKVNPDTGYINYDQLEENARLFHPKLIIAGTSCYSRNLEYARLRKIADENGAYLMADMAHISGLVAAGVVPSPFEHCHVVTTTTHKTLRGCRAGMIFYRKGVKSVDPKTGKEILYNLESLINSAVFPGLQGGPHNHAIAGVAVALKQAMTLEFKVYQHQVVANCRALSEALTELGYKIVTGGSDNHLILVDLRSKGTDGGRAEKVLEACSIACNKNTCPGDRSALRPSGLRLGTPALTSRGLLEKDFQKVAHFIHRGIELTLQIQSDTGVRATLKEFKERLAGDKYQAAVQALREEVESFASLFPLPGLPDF
Kd [1] [µM],Kd [2] [µM],Kd (SHMT1) [µM],Compound
3.51,–,–,"Nc1nc2c(c(=O)[nH]1)NC(CNc1ccc(C(=O)N[C@@H](CCC(=O)O)C(=O)O)cc1)CN2 (stereo partly shown) [THF, Tetrahydrofolic acid]"
–,2.9,2.37,"CC1(C)[C@@H](O)CC[C@]2(C)[C@H]3C(=O)C=C4[C@@H]5C[C@@](C)(C(=O)O)CC[C@]5(C)CC[C@@]4(C)[C@]3(C)CC[C@@H]12 [GA, Glycyrrhetinic acid]"
15.1,–,–,"CC1(C)[C@@H](OC(=O)CCC(=O)O)CC[C@]2(C)[C@H]3C(=O)C=C4[C@@H]5C[C@@](C)(C(=O)O)CC[C@]5(C)CC[C@@]4(C)[C@]3(C)CC[C@@H]12 [CBX, Carbenoxolone]"
